In patent US9409876B2, “Bradykinin receptor antagonists and pharmaceutical compositions containing them” (DOMPE' FARMACEUTICI S.P.A., priority 2013, dated 2016) one finds IC50 data, which are given here for 31 compounds.

The target of the test is T1, BKB1 receptors (Homo sapiens, UniProt P46663).
T1 construct: Human (IMR-90) lung fibroblast cells expressing native BKB1 receptors; endogenous in cells; host or cells: IMR-90 human lung fibroblasts, treated with human IL-1 to up-regulate BKB1
T1 sequence (P46663 1-353): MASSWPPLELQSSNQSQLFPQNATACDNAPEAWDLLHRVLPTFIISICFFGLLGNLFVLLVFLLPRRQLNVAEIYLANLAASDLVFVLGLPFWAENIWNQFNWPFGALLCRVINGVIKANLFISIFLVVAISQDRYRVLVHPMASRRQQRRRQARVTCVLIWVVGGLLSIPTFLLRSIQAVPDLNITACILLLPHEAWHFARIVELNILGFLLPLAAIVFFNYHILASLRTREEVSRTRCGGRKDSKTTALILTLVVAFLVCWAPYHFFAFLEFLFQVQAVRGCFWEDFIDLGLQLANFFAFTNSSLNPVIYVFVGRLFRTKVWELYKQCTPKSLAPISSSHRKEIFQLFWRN
Nature of the test: Calcium Mobilization Assay (FLIPR), IMR-90 cells, BKB1. The format is cell-based. The following applies: IL-1 induced IMR-90 cells, agonist desArg10-kallidin (DAKD). As for the experimental part: Calcium Mobilization Assay (FLIPR)—Human (IMR-90) lung fibroblast cells expressing native BKB1 receptors were harvested by trypsinization and seeded into black wall/clear bottom 96-well plates (Costar 3904; Corning Life Sciences, Acton, Mass.) at approximately 13,000 cells/well. After 1 day incubation, cells were treated with human IL-1 (0.35 ng/ml) in 10% FBS/MEM for 2 h to up-regulate BKB1 receptors. Induced cells were loaded with fluorescent calcium indicator by incubation with 2.3 µM Fluo-4/acetoxymethyl ester (Invitrogen) at 37° C. for 1.5 h in the presence of an anion transport inhibitor (2.5 mM probenecid in 1% FBS/MEM). Extracellular dye was removed by washing with assay buffer (2.5 mM probenecid, 0.1% BSA in 20 mM HEPES/HBSS without bicarbonate or phenol red, pH 7.5) and cell plates were kept in the dark until used. Test compounds were assayed at eight concentrations in triplicate.

The term IC50 denotes the concentration needed to halve the response being measured. Consider `COc1ccccc1CN(C(=O)Cn1nnc2ccccc21)C(C(=O)NCC1CCCO1)c1ccc(C)cc1` (stereo not shown) [1 (mix), 2-(1H-benzotriazol-1-yl)-N-(2-methoxybenzyl)-N-{1-(4-methylphenyl)-2-oxo-2-[(tetrahydrofuran-2-ylmethyl)amino]ethyl}acetamide], for which the IC50 was found to be 1900 nM.
Consider `COc1ccccc1CN(C(=O)CC(C)C)C(C(=O)NCC1CCCO1)c1ccc(C)cc1` (stereo not shown) [8 (mix)], for which the IC50 amounted to 418 nM.
On to `COc1ccccc1CN(C(=O)Cc1ccccc1C)C(C(=O)NCC1CCCO1)c1ccc(C)cc1` (stereo not shown) [9 (mix)], for which the IC50 stood at 300 nM.
With `COc1ccccc1CN(C(=O)CN1C(=O)c2ccccc2C1=O)C(C(=O)NCC1CCCO1)c1ccc(C)cc1` (stereo not shown) [10 (mix), 2-(1,3-dioxoisoindolin-2-yl)-N-(2-methoxybenzyl)-N-{1-(4-methylphenyl)-2-oxo-2-[(tetrahydrofuran-2-ylmethyl)amino]-ethyl}acetamide] the figure was 300 nM.
Take `COc1ccccc1CN(C(=O)Cc1c[nH]cn1)C(C(=O)NCC1CCCO1)c1ccc(C)cc1` (stereo not shown) [12 (mix), 2-(1H-imidazol-4-yl)-N-(2-methoxybenzyl)-N-{1-(4-methylphenyl)-2-oxo-2-[(tetrahydrofuran-2-ylmethyl)amino]ethyl}acetamide]: the IC50 was 98 nM.
With `COc1ccccc1CC(=O)N(Cc1ccccc1OC)C(C(=O)NCC1CCCO1)c1ccc(C)cc1` (stereo not shown) [13 (mix)] the figure was 300 nM; with `CCCCC(=O)N(Cc1ccccc1OC)C(C(=O)NCC1CCCO1)c1ccc(C)cc1` (stereo not shown) [14 (mix), N-(2-methoxybenzyl)-N-{1-(4-methylphenyl)-2-oxo-2-[(tetrahydrofuran-2-ylmethyl)amino]ethyl}pentanamide], 300 nM.
With `COc1ccccc1CN(C(=O)C1CCCC1)C(C(=O)NCC1CCCO1)c1ccc(C)cc1` (stereo not shown) [15 (mix), N-(2-methoxybenzyl)-N-{1-(4-methylphenyl)-2-oxo-2-[(tetrahydrofuran-2-ylmethyl)amino]ethyl}cyclopentanecarboxamide] the figure was 300 nM.
On to `COc1ccccc1CN(C(=O)c1ccc(O)cc1)C(C(=O)NCC1CCCO1)c1ccc(C)cc1` (stereo not shown) [16 (mix), 4-hydroxy-N-(2-methoxybenzyl)-N-{1-(4-methylphenyl)-2-oxo-2-[(tetrahydrofuran-2-ylmethyl)amino]ethyl}benzamide], for which the IC50 amounted to 1000 nM.
In the case of `COc1ccccc1CN(C(=O)CCC(C)=O)C(C(=O)NCC1CCCO1)c1ccc(C)cc1` (stereo not shown) [17 (mix), 4-oxo-N-(2-methoxybenzyl)-N-{1-(4-methylphenyl)-2-oxo-2-[(tetrahydrofuran-2-ylmethyl)amino]ethyl}pentanamide], the IC50 is 1200 nM.
For `COc1ccccc1CN(C(=O)Cc1cccc(C)c1)C(C(=O)NCC1CCCO1)c1ccc(C)cc1` (stereo not shown) [18 (mix)], the half-maximal inhibitory concentration (IC50) was determined as 300 nM.
For `COc1ccccc1CN(C(=O)Cc1ccc(C)cc1)C(C(=O)NCC1CCCO1)c1ccc(C)cc1` (stereo not shown) [19 (mix)], the concentration for half-maximal inhibition (IC50) amounted to 1400 nM.
`COc1ccccc1CN(C(=O)c1ccc(C)cc1)C(C(=O)NCC1CCCO1)c1ccc(C)cc1` (stereo not shown) [20 (mix), 4-methyl-N-(2-methoxybenzyl)-N-{1-(4-methylphenyl)-2-oxo-2-[(tetrahydrofuran-2-ylmethyl)amino]ethyl}benzamide]: the IC50 worked out at 6100 nM.
With `COc1ccccc1CN(C(=O)Cc1ccc(F)cc1)C(C(=O)NCC1CCCO1)c1ccc(C)cc1` (stereo not shown) [21 (mix)] the figure was 3500 nM; with `COc1ccccc1CN(C(=O)c1ccc(F)cc1)C(C(=O)NCC1CCCO1)c1ccc(C)cc1` (stereo not shown) [22 (mix), 4-fluoro-N-(2-methoxybenzyl)-N-{1-(4-methylphenyl)-2-oxo-2-[(tetrahydrofuran-2-ylmethyl)amino]ethyl}benzamide], 8700 nM; with `COc1ccccc1CN(C(=O)C1CCC(F)(F)CC1)C(C(=O)NCC1CCCO1)c1ccc(C)cc1` (stereo not shown) [23 (mix), 4,4-difluoro-N-(2-methoxybenzyl)-N-{1-(4-methylphenyl)-2-oxo-2-[(tetrahydrofuran-2-ylmethyl)amino]ethyl}cyclohexanecarboxamide], 8400 nM.
With `CCC(=O)N(Cc1ccccc1OC)C(C(=O)NCC1CCCO1)c1ccc(C)cc1` (stereo not shown) [24 (mix), N-(2-methoxybenzyl)-N-{1-(4-methylphenyl)-2-oxo-2-[(tetrahydrofuran-2-ylmethyl)amino]ethyl}propanamide] the figure was 13200 nM; with `COc1ccccc1CN(C(=O)C1CCC1)C(C(=O)NCC1CCCO1)c1ccc(C)cc1` (stereo not shown) [25 (mix), N-(2-methoxybenzyl)-N-{1-(4-methylphenyl)-2-oxo-2-[(tetrahydrofuran-2-ylmethyl)amino]ethyl}cyclobutanecarboxamide], 15700 nM; with `COc1ccccc1CN(C(=O)c1ccccc1[N+](=O)[O-])C(C(=O)NCC1CCCO1)c1ccc(C)cc1` (stereo not shown) [26 (mix), N-(2-methoxybenzyl)-2-nitro-N-{1-(4-methylphenyl)-2-oxo-2-[(tetrahydrofuran-2-ylmethyl)amino]ethyl}benzamide], 14400 nM.
Consider `COc1ccccc1CN(C(=O)C1CC1)C(C(=O)NCC1CCCO1)c1ccc(C)cc1` (stereo not shown) [27 (mix), N-(2-methoxybenzyl)-N-{1-(4-methylphenyl)-2-oxo-2-[(tetrahydrofuran-2-ylmethyl)amino]ethyl}cyclopropanecarboxamide], for which the IC50 was determined as 15000 nM.
With `COc1ccccc1CN(C(=O)c1ccc([N+](=O)[O-])cc1)C(C(=O)NCC1CCCO1)c1ccc(C)cc1` (stereo not shown) [28 (mix), N-(2-methoxybenzyl)-4-nitro-N-{1-(4-methylphenyl)-2-oxo-2-[(tetrahydrofuran-2-ylmethyl)amino]ethyl}benzamide] the figure was 3000 nM; with `COc1ccccc1CN(C(=O)Cc1ccc(N(C)C)cc1)C(C(=O)NCC1CCCO1)c1ccc(C)cc1` (stereo not shown) [29 (mix), 2-[(4-dimethylamino)phenyl]-N-(2-methoxybenzyl)-N-{1-(4-methylphenyl)-2-oxo-2-[(tetrahydrofuran-2-ylmethyl)amino]ethyl}acetamide], 2100 nM.
As for `COc1ccccc1CN(C(=O)Cn1ccnn1)C(C(=O)NCC1CCCO1)c1ccc(C)cc1` (stereo not shown) [30 (mix), N-(2-methoxybenzyl)-N-{1-(4-methylphenyl)-2-oxo-2-[(tetrahydrofuran-2-ylmethyl)amino]ethyl}-2-(1H-1,2,3-triazol-1-yl)acetamide], the figure is 68 nM; as for `COc1ccccc1CN(C(=O)Cn1ccc2ccccc21)C(C(=O)NCC1CCCO1)c1ccc(C)cc1` (stereo not shown) [31 (mix), 2-(1H-indol-1-yl)-N-(2-methoxybenzyl)-N-{1-(4-methylphenyl)-2-oxo-2-[(tetrahydrofuran-2-ylmethyl)amino]ethyl}acetamide], 268 nM; as for `Cc1ccc(C(C(=O)NCC2CCCO2)N(CC2CCCC2)C(=O)Cc2c[nH]cn2)cc1` (stereo not shown) [32 (mix), N-(cyclopentylmethyl)-2-(1H-imidazol-4-yl)-N-{1-(4-methylphenyl)-2-oxo-2-[(tetrahydrofuran-2-ylmethyl)amino]ethyl}acetamide], 800 nM.
Turning to `Cc1ccc(C(C(=O)NCC2CCCO2)N(CC2CCCCC2)C(=O)Cc2ccccc2C)cc1` (stereo not shown) [33 (mix), N-(cyclohexylmethyl)-2-(2-methylphenyl)-N-{1-(4-methylphenyl)-2-oxo-2-[(tetrahydrofuran-2-ylmethyl)amino]ethyl}acetamide], the IC50 turned out to be 1700 nM.
Take `Cc1ccc(C(C(=O)NCC2CCCO2)N(CC2CCCCC2)C(=O)CN(C)C)cc1` (stereo not shown) [34 (mix), N-(cyclohexylmethyl)-2-(dimethylamino)-N-{1-(4-methylphenyl)-2-oxo-2-[(tetrahydrofuran-2-ylmethyl)amino]ethyl}acetamide]: the IC50 is 1100 nM.
Turning to `Cc1ccc(C(C(=O)NCC2CCCO2)N(Cc2cccc(C)c2)C(=O)CN(C)C)cc1` (stereo not shown) [35 (mix), 2-(dimethylamino)-N-(3-methylbenzyl)-N-{1-(4-methylphenyl)-2-oxo-2-[(tetrahydrofuran-2-ylmethyl)amino]ethyl}acetamide], the IC50 amounted to 1700 nM.
With `Cc1ccc(C(C(=O)NCC2CCCO2)N(CC2CCCCC2)C(=O)Cc2c[nH]cn2)cc1` (stereo not shown) [36 (mix), N-(cyclohexylmethyl)-2-(1H-imidazol-4-yl)-N-{1-(4-methylphenyl)-2-oxo-2-[(tetrahydrofuran-2-ylmethyl)amino]ethyl}acetamide] the figure was 13800 nM; with `Cc1ccc(C(C(=O)NCC2CCCO2)N(CC2CCCCC2)C(=O)Cc2ccccc2)cc1` (stereo not shown) [37 (mix), N-(cyclohexylmethyl)-2-phenyl-N-{1-(4-methylphenyl)-2-oxo-2-[(tetrahydrofuran-2-ylmethyl)amino]ethyl}acetamide], 6200 nM; with `Cc1ccc(C(C(=O)NCC2CCCO2)N(Cc2cccc(C)c2)C(=O)C2CC2C)cc1` (stereo not shown) [38 (mix), 2-methyl-N-(3-methylbenzyl)-N-{1-(4-methylphenyl)-2-oxo-2-[(tetrahydrofuran-2-ylmethyl)amino]ethyl}cyclopropanecarboxamide], 12700 nM.
